Measured values: PubChem BioAssay (NCI)
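Cultured in 96-well plates, cells were exposed to test compound for 48 hours across five concentrations. TGI is the concentration that stops growth completely.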

tested on: OVCAR-4 ovarian; assay: inhibition of tumour cell growth, NCI panel, 48 h

Row | Compound | TGI [µM]
1 | Nc1ncc2ncn(C3CCC(CO)O3)c2n1 (configuration not stated) | > 100

tested on: HT29 colon; assay: inhibition of tumour cell growth, NCI panel, 48 h

Row | Compound | TGI [µM]
2 | O=NNc1ccc(S(=O)(=O)c2ccc3ccccc3c2)cn1 | > 100
3 | C[C@@H]1CC[C@H]2[C@H](C)C(OC3O[C@@H]4O[C@@]5(C)CC[C@H]6[C@H](C)CC[C@@H]([C@@H]3C)[C@@]46O5)O[C@@H]3O[C@@]4(C)CC[C@@H]1[C@]32O4 (some centres not stated) | > 100
4 | CN1CCC(C(O)(c2ccccc2)c2ccc(Br)cc2)CC1 (configuration not stated) | 51.9
5 | CC(=O)Nc1cccc(N2C(=O)/C(=C\c3cccc(Oc4ccccc4)c3)SC2c2ccccc2)c1 (configuration not stated) | > 100
6 | O=c1c(Sc2c(SCSc3cnc4ccccc4c3Sc3c[nH]c4ccccc4c3=O)cnc3ccccc23)c[nH]c2ccccc12 | > 100
7 | CSc1nc(=O)cnn1C | > 100
8 | Nc1ncc2ncn(C3CCC(CO)O3)c2n1 (configuration not stated) | > 100

tested on: A549 NSCLC; assay: inhibition of tumour cell growth, NCI panel, 48 h

Row | Compound | TGI [µM]
9 | O=NNc1ccc(S(=O)(=O)c2ccc3ccccc3c2)cn1 | > 100
10 | C[C@@H]1CC[C@H]2[C@H](C)C(OC3O[C@@H]4O[C@@]5(C)CC[C@H]6[C@H](C)CC[C@@H]([C@@H]3C)[C@@]46O5)O[C@@H]3O[C@@]4(C)CC[C@@H]1[C@]32O4 (some centres not stated) | > 100
11 | CN1CCC(C(O)(c2ccccc2)c2ccc(Br)cc2)CC1 (configuration not stated) | > 100
12 | CC(=O)Nc1cccc(N2C(=O)/C(=C\c3cccc(Oc4ccccc4)c3)SC2c2ccccc2)c1 (configuration not stated) | > 100
13 | CSc1nc(=O)cnn1C | > 100
14 | Nc1ncc2ncn(C3CCC(CO)O3)c2n1 (configuration not stated) | > 100

tested on: NCI-H226 lung; assay: inhibition of tumour cell growth, NCI panel, 48 h

Row | Compound | TGI [µM]
15 | O=NNc1ccc(S(=O)(=O)c2ccc3ccccc3c2)cn1 | > 100
16 | C[C@@H]1CC[C@H]2[C@H](C)C(OC3O[C@@H]4O[C@@]5(C)CC[C@H]6[C@H](C)CC[C@@H]([C@@H]3C)[C@@]46O5)O[C@@H]3O[C@@]4(C)CC[C@@H]1[C@]32O4 (some centres not stated) | > 100
17 | CN1CCC(C(O)(c2ccccc2)c2ccc(Br)cc2)CC1 (configuration not stated) | 59.5
18 | CC(=O)Nc1cccc(N2C(=O)/C(=C\c3cccc(Oc4ccccc4)c3)SC2c2ccccc2)c1 (configuration not stated) | > 100
19 | CSc1nc(=O)cnn1C | > 100
20 | Nc1ncc2ncn(C3CCC(CO)O3)c2n1 (configuration not stated) | > 100

tested on: BT-549 breast; assay: inhibition of tumour cell growth, NCI panel, 48 h

Row | Compound | TGI [µM]
21 | O=NNc1ccc(S(=O)(=O)c2ccc3ccccc3c2)cn1 | > 100
22 | C[C@@H]1CC[C@H]2[C@H](C)C(OC3O[C@@H]4O[C@@]5(C)CC[C@H]6[C@H](C)CC[C@@H]([C@@H]3C)[C@@]46O5)O[C@@H]3O[C@@]4(C)CC[C@@H]1[C@]32O4 (some centres not stated) | > 100
23 | CN1CCC(C(O)(c2ccccc2)c2ccc(Br)cc2)CC1 (configuration not stated) | > 100
24 | CC(=O)Nc1cccc(N2C(=O)/C(=C\c3cccc(Oc4ccccc4)c3)SC2c2ccccc2)c1 (configuration not stated) | > 100
25 | O=c1c(Sc2c(SCSc3cnc4ccccc4c3Sc3c[nH]c4ccccc4c3=O)cnc3ccccc23)c[nH]c2ccccc12 | > 100
26 | CSc1nc(=O)cnn1C | > 100
27 | Nc1ncc2ncn(C3CCC(CO)O3)c2n1 (configuration not stated) | > 100

tested on: PC-3 prostate; assay: inhibition of tumour cell growth, NCI panel, 48 h

Row | Compound | TGI [µM]
28 | O=NNc1ccc(S(=O)(=O)c2ccc3ccccc3c2)cn1 | > 100
29 | C[C@@H]1CC[C@H]2[C@H](C)C(OC3O[C@@H]4O[C@@]5(C)CC[C@H]6[C@H](C)CC[C@@H]([C@@H]3C)[C@@]46O5)O[C@@H]3O[C@@]4(C)CC[C@@H]1[C@]32O4 (some centres not stated) | > 100
30 | CN1CCC(C(O)(c2ccccc2)c2ccc(Br)cc2)CC1 (configuration not stated) | > 100
31 | CSc1nc(=O)cnn1C | > 100
32 | Nc1ncc2ncn(C3CCC(CO)O3)c2n1 (configuration not stated) | > 100

tested on: HCT-116 colon; assay: inhibition of tumour cell growth, NCI panel, 48 h

Row | Compound | TGI [µM]
33 | O=NNc1ccc(S(=O)(=O)c2ccc3ccccc3c2)cn1 | > 100
34 | C[C@@H]1CC[C@H]2[C@H](C)C(OC3O[C@@H]4O[C@@]5(C)CC[C@H]6[C@H](C)CC[C@@H]([C@@H]3C)[C@@]46O5)O[C@@H]3O[C@@]4(C)CC[C@@H]1[C@]32O4 (some centres not stated) | > 100
35 | CN1CCC(C(O)(c2ccccc2)c2ccc(Br)cc2)CC1 (configuration not stated) | 51.1
36 | CC(=O)Nc1cccc(N2C(=O)/C(=C\c3cccc(Oc4ccccc4)c3)SC2c2ccccc2)c1 (configuration not stated) | > 100
37 | O=c1c(Sc2c(SCSc3cnc4ccccc4c3Sc3c[nH]c4ccccc4c3=O)cnc3ccccc23)c[nH]c2ccccc12 | > 100
38 | CSc1nc(=O)cnn1C | > 100
39 | Nc1ncc2ncn(C3CCC(CO)O3)c2n1 (configuration not stated) | > 100

tested on: SK-MEL-2 melanoma; assay: inhibition of tumour cell growth, NCI panel, 48 h

Row | Compound | TGI [µM]
40 | O=NNc1ccc(S(=O)(=O)c2ccc3ccccc3c2)cn1 | > 100
41 | C[C@@H]1CC[C@H]2[C@H](C)C(OC3O[C@@H]4O[C@@]5(C)CC[C@H]6[C@H](C)CC[C@@H]([C@@H]3C)[C@@]46O5)O[C@@H]3O[C@@]4(C)CC[C@@H]1[C@]32O4 (some centres not stated) | > 100
42 | CN1CCC(C(O)(c2ccccc2)c2ccc(Br)cc2)CC1 (configuration not stated) | 30.3
43 | CC(=O)Nc1cccc(N2C(=O)/C(=C\c3cccc(Oc4ccccc4)c3)SC2c2ccccc2)c1 (configuration not stated) | > 100
44 | CSc1nc(=O)cnn1C | > 100
45 | Nc1ncc2ncn(C3CCC(CO)O3)c2n1 (configuration not stated) | > 100

tested on: SNB-19 CNS; assay: inhibition of tumour cell growth, NCI panel, 48 h

Row | Compound | TGI [µM]
46 | O=NNc1ccc(S(=O)(=O)c2ccc3ccccc3c2)cn1 | > 100
47 | C[C@@H]1CC[C@H]2[C@H](C)C(OC3O[C@@H]4O[C@@]5(C)CC[C@H]6[C@H](C)CC[C@@H]([C@@H]3C)[C@@]46O5)O[C@@H]3O[C@@]4(C)CC[C@@H]1[C@]32O4 (some centres not stated) | > 100
